Measured values from patent publication US4015974A, “Amido phosphorothiolates” (priority 1972, dated 1977).

Experiments:
Type in all cases: in vivo
[1] = test system: common lambsquarter (Chenopodium album); assay: Pre-emergence application, herbicidal effect on common lambsquarter (Table 1); design: key: 0: not damaged; 5: completely killed; conditions: 20 days after application, score 0-5
Source text: (§1) Seeds of barnyard grass (Echinochloa crus-galli) and large crabgrass (Digitaria sanguinalis) as representatives of grassy weeds and those of radish, redroot pigweed (Amaranthus retroflexus), common purslane (Portulaca oleracea) and common lambsquarter (Chenopodium album) as representatives of broad-leaved weeds were individually sowed in flower pots of about 10 cm. in diameter. After covering the seeds with soil, test compounds as shown in Table 1 were individually applied to the soil treatment. Thereafter the plants were grown in a green house and 20 days after application the herbicidal effects of the compounds were observed, the results of which are as shown in Table 1.
(§2) Herbicidal effects were evaluated by the numerals ranging from 0 (not damaged) to 5 (completely killed). All the test compounds were used in the form of wettable powder and diluted with water before application.

rice = assay: Water application, phytotoxicity on rice (Table 2); design: key: 0: no effect; 1: very slightly affected; 2: slightly affected; 3: moderately affected; 4: considerably affected; 5: completely killed; conditions: 25 days, score 0-5
Source text: (§3) Wagner pots of 14 cm. in diameter, which had been packed with 1.5 kg. of paddy field soil, were brought into the state of paddy fields. To the pots were transplanted rice seedlings at the 3-leave stage. Further, seeds of barnyard grass (Echinochloa crus-galli) were sowed in the pots and required amounts of test compounds were applied to the soil under water lodged condition. 25 days after application, the degrees of herbicidal activity and phytotoxity were investigated on above-mentioned plants which had been transplanted and sowed, and on broad-leaved weeds, e.g., monochoria (Monochoria viaginalis Presl.), false pimpernel (Linderna pyxidaria) and toothcup (Rotala indica Koehue), which had been spontaneously germinated. The test compounds were used in the form of wettable powder. The herbicidal effects and the phytotoxity were evaluated as follows by the numerals ranging from 0 to 5.

[2] = test system: barnyard grass (Echinochloa crus-galli); assay: Water application, herbicidal effect on barnyard grass (Table 2); design: key: 0: not damaged; 5: completely killed; conditions: 25 days, score 0-5
Source text: as §3

[3] = test system: broad-leaved weeds, e.g., monochoria, false pimpernel and toothcup; assay: Water application, herbicidal effect on broad-leaved weeds (Table 2); design: key: 0: not damaged; 5: completely killed; conditions: 25 days, score 0-5
Source text: as §3

[4] = test system: large crabgrass (Digitaria sanguinalis); assay: Pre-emergence application, herbicidal effect on large crabgrass (Table 1); design: key: 0: not damaged; 5: completely killed; conditions: 20 days after application, score 0-5
Source text: as §1, §2

[5] = test system: redroot pigweed (Amaranthus retroflexus); assay: Pre-emergence application, herbicidal effect on redroot pigweed (Table 1); design: key: 0: not damaged; 5: completely killed; conditions: 20 days after application, score 0-5
Source text: as §1, §2

[6] = test system: common purslane (Portulaca oleracea); assay: Pre-emergence application, herbicidal effect on common purslane (Table 1); conditions: 20 days after application, score 0-5
Source text: as §1, §2

radish = assay: Pre-emergence application, herbicidal effect on radish (Table 1); design: key: 0: not damaged; 5: completely killed; conditions: 20 days after application, score 0-5
Source text: as §1, §2

[7] = test system: barnyard grass (Echinochloa crus-galli); assay: Pre-emergence application, herbicidal effect on barnyard grass (Table 1); design: key: 0: not damaged; 5: completely killed; conditions: 20 days after application, score 0-5
Source text: as §1, §2

CCOP(=O)(SCC(=O)N1CCC(C)CC1)SC(C)C (stereo not drawn) [Compound 26]
Herbicidal effect, common lambsquarter ([1]; 10 g./a.): 3
Herbicidal effect, common lambsquarter ([1]; 20 g./a.): 4
Herbicidal effect, common lambsquarter ([1]; 40 g./a.): 4
Phytotoxicity on rice (rice; 10 g/a): 0
Phytotoxicity on rice (rice; 20 g/a): 0
Phytotoxicity on rice (rice; 40 g/a): 0
Herbicidal effects, barnyard grass ([2]; 10 g/a): 5
Herbicidal effects, barnyard grass ([2]; 20 g/a): 5
Herbicidal effects, barnyard grass ([2]; 40 g/a): 5
Herbicidal effects, broad-leaved weeds ([3]; 10 g/a): 5
Herbicidal effects, broad-leaved weeds ([3]; 20 g/a): 5
Herbicidal effects, broad-leaved weeds ([3]; 40 g/a): 5
Herbicidal effect, large crabgrass ([4]; 10 g./a.): 4
Herbicidal effect, large crabgrass ([4]; 20 g./a.): 5
Herbicidal effect, large crabgrass ([4]; 40 g./a.): 5
Herbicidal effect, redroot pigweed ([5]; 10 g./a.): 4
Herbicidal effect, redroot pigweed ([5]; 20 g./a.): 4
Herbicidal effect, redroot pigweed ([5]; 40 g./a.): 4
Herbicidal effect, common purslane ([6]; 10 g./a.): 4
Herbicidal effect, common purslane ([6]; 20 g./a.): 4
Herbicidal effect, common purslane ([6]; 40 g./a.): 4
Herbicidal effect, radish (radish; 10 g./a.): 0
Herbicidal effect, radish (radish; 20 g./a.): 0
Herbicidal effect, radish (radish; 40 g./a.): 0
Herbicidal effect, barnyard grass ([7]; 10 g./a.): 4
Herbicidal effect, barnyard grass ([7]; 20 g./a.): 5
Herbicidal effect, barnyard grass ([7]; 40 g./a.): 5

CCOP(=O)(SCC(=O)N1CCC(C)CC1)SC(C)CC (stereo not drawn) [Compound 27]
Herbicidal effect, common lambsquarter ([1]; 10 g./a.): 4
Herbicidal effect, common lambsquarter ([1]; 20 g./a.): 4
Herbicidal effect, common lambsquarter ([1]; 40 g./a.): 5
Phytotoxicity on rice (rice; 10 g/a): 0
Phytotoxicity on rice (rice; 20 g/a): 0
Phytotoxicity on rice (rice; 40 g/a): 0
Herbicidal effects, barnyard grass ([2]; 10 g/a): 5
Herbicidal effects, barnyard grass ([2]; 20 g/a): 5
Herbicidal effects, barnyard grass ([2]; 40 g/a): 5
Herbicidal effects, broad-leaved weeds ([3]; 10 g/a): 5
Herbicidal effects, broad-leaved weeds ([3]; 20 g/a): 5
Herbicidal effects, broad-leaved weeds ([3]; 40 g/a): 5
Herbicidal effect, large crabgrass ([4]; 10 g./a.): 5
Herbicidal effect, large crabgrass ([4]; 20 g./a.): 5
Herbicidal effect, large crabgrass ([4]; 40 g./a.): 5
Herbicidal effect, redroot pigweed ([5]; 10 g./a.): 3
Herbicidal effect, redroot pigweed ([5]; 20 g./a.): 4
Herbicidal effect, redroot pigweed ([5]; 40 g./a.): 5
Herbicidal effect, common purslane ([6]; 10 g./a.): 4
Herbicidal effect, common purslane ([6]; 20 g./a.): 4
Herbicidal effect, common purslane ([6]; 40 g./a.): 4
Herbicidal effect, radish (radish; 10 g./a.): 0
Herbicidal effect, radish (radish; 20 g./a.): 0
Herbicidal effect, radish (radish; 40 g./a.): 0
Herbicidal effect, barnyard grass ([7]; 10 g./a.): 4
Herbicidal effect, barnyard grass ([7]; 20 g./a.): 5
Herbicidal effect, barnyard grass ([7]; 40 g./a.): 5

CCCCOP(=O)(SCC(=O)N1CCCCC1C)SCc1ccc(C)cc1 (stereo not drawn) [Compound 56]
Herbicidal effect, common lambsquarter ([1]; 10 g./a.): 3
Herbicidal effect, common lambsquarter ([1]; 20 g./a.): 4
Herbicidal effect, common lambsquarter ([1]; 40 g./a.): 5
Phytotoxicity on rice (rice; 10 g/a): 0
Phytotoxicity on rice (rice; 20 g/a): 0
Phytotoxicity on rice (rice; 40 g/a): 0
Herbicidal effects, barnyard grass ([2]; 10 g/a): 5
Herbicidal effects, barnyard grass ([2]; 20 g/a): 5
Herbicidal effects, barnyard grass ([2]; 40 g/a): 5
Herbicidal effects, broad-leaved weeds ([3]; 10 g/a): 5
Herbicidal effects, broad-leaved weeds ([3]; 20 g/a): 5
Herbicidal effects, broad-leaved weeds ([3]; 40 g/a): 5
Herbicidal effect, large crabgrass ([4]; 10 g./a.): 4
Herbicidal effect, large crabgrass ([4]; 20 g./a.): 5
Herbicidal effect, large crabgrass ([4]; 40 g./a.): 5
Herbicidal effect, redroot pigweed ([5]; 10 g./a.): 3
Herbicidal effect, redroot pigweed ([5]; 20 g./a.): 3
Herbicidal effect, redroot pigweed ([5]; 40 g./a.): 5
Herbicidal effect, common purslane ([6]; 10 g./a.): 3
Herbicidal effect, common purslane ([6]; 20 g./a.): 3
Herbicidal effect, common purslane ([6]; 40 g./a.): 4
Herbicidal effect, radish (radish; 10 g./a.): 0
Herbicidal effect, radish (radish; 20 g./a.): 0
Herbicidal effect, radish (radish; 40 g./a.): 0
Herbicidal effect, barnyard grass ([7]; 10 g./a.): 5
Herbicidal effect, barnyard grass ([7]; 20 g./a.): 5
Herbicidal effect, barnyard grass ([7]; 40 g./a.): 5

O=[N+]([O-])c1ccc(Oc2ccc(Cl)cc2Cl)cc1 [NIP, reference compound]
Phytotoxicity on rice (rice; 20 g/a): 2
Phytotoxicity on rice (rice; 40 g/a): 4
Herbicidal effects, barnyard grass ([2]; 20 g/a): 5
Herbicidal effects, barnyard grass ([2]; 40 g/a): 5
Herbicidal effects, broad-leaved weeds ([3]; 20 g/a): 5
Herbicidal effects, broad-leaved weeds ([3]; 40 g/a): 5
